System: orthotopic HepG2/Luc liver tumors
Experiment: Chemotherapy of orthotopic liver tumors (BL imaging, ex vivo BL and FL imaging)
Assay type: in vivo, mice
Experimental: During the treatment, the body weights of mice were also measured every three days. On day 15, all mice were sacrificed, the whole liver were excised and photographed. Then, P-CyPt (10 μM) and D-luciferin (5 mM) were sprayed on the surface of each liver to performed ex vivo BL and NIR FL imaging. The BL images were acquired at 10 min using the BL imaging mode (Open), and the NIR FL images were acquired at 30 min, using a 660 nm excitation filter and a 750 ± 50 nm emission filter. The average BL and FL intensities were quantified by the ROIs measurement in the tumor region of liver using the Living Image Software (4.5.2, PerkinElmer, MA, U.S.A). Each experiment was conducted in four mice.

With `[NH2][Pt]([NH2])([Cl])[Cl]` [CDDP, cisplatin] the “tumor BL over the course of treatment” value (2.25 mg kg^−1 Pt i.v. on day 0, 3, 6, 9, 12) was “markedly increased”, the “tumor BL intensity of liver” value (day 15) was 861747.5 and the “Normalized FL intensity of mCy (ex vivo liver tumor, Fig. 5h)” value (day 15, livers sprayed with P-CyPt 10 μM, normalized to PBS group) was 0.90. For the same compound, the “Normalized BL intensity (ex vivo liver tumor, Fig. 5h)” value (day 15, normalized to PBS group) was 0.87.

— PMC9925730, “Controlled sequential in situ self-assembly and disassembly of a fluorogenic cisplatin prodrug for cancer theranostics” (Nature Communications, 2023)
